The results in this text go back to patent US10869481B2, “Method for controlling nematode pests” (Syngenta Participations AG, priority 2014, dated 2020).

Assay type in all cases: in vivo, Heterodera schachtii
The test system of assay [1] is sugar beet nematode (SBN). Description: Yield response field trials, CACTUS tolerant sugar beet seeds, seed treatment. To be noted: for White Sugar yield/ha: CACTUS tolerant sugar beet, average of nine field trials. As to the method:
(§1) The yield response study illustrates the unexpected increase in yield achieved by using a nematode-antagonistic biocontrol agent with SBN resistant or tolerant varieties. Multiple field trials were conducted across Germany, Czech Republic and Denmark. The results of nine different trials are presented below utilizing seed treatments on sugar beet seeds to combat nematodes.
(§2) The tests presented below were run on both susceptible and SBN tolerant varieties of sugar beet seeds. In particular, the susceptible variety is known by the trade name INVICTA and the tolerant variety is known by the trade name CACTUS. Each trial, on both the susceptible and tolerant variety, was run with a Control check that included no nematicide, a treatment on the seed with Pasteuria nishizawae at about 1×10^6 spores/seed, a treatment on the seed with Pasteuria nishizawae at about 1×10^7 spores/seed, and a treatment on the seed that included a commercial soil applied standard nematicide.
(§3) The results of trails are presented below where yield data has been averaged.
CACTUS Tolerant Sugar Beet Seeds

Assay [2] has as its system sugar beet nematode (SBN). Description: Root and sugar yield field trials, susceptible sugar beet seeds, seed treatment. The protocol: (§4) The root and sugar yield response study illustrates the unexpected increase in root and sugar yield achieved by using a nematode-antagonistic biocontrol agent with SBN resistant or tolerant varieties. Multiple field trials were conducted across Nebraska, Colorado, and Idaho. The results of four different trials are presented below utilizing seed treatments on sugar beet seeds to combat nematodes.
(§5) The tests presented below were run on both susceptible and SBN tolerant varieties of sugar beet seeds. Each trial, on both the susceptible and tolerant variety, was run with a Control check that included no nematicide, a treatment on the seed with Pasteuria nishizawae at about 5×10^6 spores/seed, a treatment on the seed with Pasteuria nishizawae at about 1×10^7 spores/seed, a treatment on the seed with Pasteuria nishizawae at about 2×10^7 spores/seed and a treatment on the seed with Pasteuria nishizawae at about 4×10^7 spores/seed.
as §3
Susceptible Sugar Beet Seeds

Assay [3] has as its system sugar beet nematode (SBN). As to the kind of experiment: Yield response field trials, INVICTA susceptible sugar beet seeds, seed treatment. As to the method:
as §1, §2, §3
INVICTA Susceptible Sugar Beet Seeds

The subject of assay [4] is sugar beet nematode (SBN). As to the kind of experiment: Root and sugar yield field trials, tolerant sugar beet seeds, seed treatment. To be noted: average of four field trials. The protocol: as §4, §5, §3
Tolerant Sugar Beet Seeds

The mark [5] stands for this setting: 1 × 10^7 spores/seed, average of four field trials.
Setting [6] is: 2 × 10^7 spores/seed, average of four field trials.
Where [7] appears, read: 4 × 10^7 spores/seed, average of four field trials.

As to Pasteuria nishizawae, the “White Sugar yield/ha” value in assay [1] (seed treatment 1 × 10^6 spores/seed) is recorded as 12.65 /ha; in assay [1] (seed treatment 1 × 10^7 spores/seed), 12.93 /ha; in assay [3] (seed treatment 1 × 10^6 spores/seed, average of nine field trials (Germany, Czech Republic, Denmark)), 11.09 /ha; in assay [3] (seed treatment 1 × 10^7 spores/seed, average of nine field trials) it was 11.20 /ha. In assay [1] (tolerant varieties treated with Pasteuria, statement in words), the “yield compared with commercial standards” value was “showed an increase over commercial standards”. Further, the “Root Yield” value is recorded as 19.9 Ton/Acre in assay [2] (setting [5]); 19.8 Ton/Acre in assay [2] (setting [6]); 19.5 Ton/Acre in assay [2] (setting [7]); 17.4 Ton/Acre in assay [2] (5 × 10^6 spores/seed, average of four field trials); 27.2 Ton/Acre in assay [4] (1 × 10^7 spores/seed); 27.2 Ton/Acre in assay [4] (2 × 10^7 spores/seed). For the same substance, the entries for the “Root Yield” value in assay [4] (4 × 10^7 spores/seed) and in assay [4] (5 × 10^6 spores/seed) were 26.7 Ton/Acre and 26.1 Ton/Acre, respectively. The “White Sugar” value in assay [2] (setting [5]) was 2.5 Ton/Acre; in assay [2] (setting [6]), 2.3 Ton/Acre; in assay [2] (setting [7]) it was 2.4 Ton/Acre; in assay [2] (5 × 10^6 spores/seed, average of four field trials (Nebraska, Colorado, Idaho)) it was 2.0 Ton/Acre; in assay [4] (1 × 10^7 spores/seed), 3.5 Ton/Acre; in assay [4] (2 × 10^7 spores/seed), 3.7 Ton/Acre. The “White Sugar” value in assay [4] (4 × 10^7 spores/seed) was 3.5 Ton/Acre; in assay [4] (5 × 10^6 spores/seed) it was 3.6 Ton/Acre.
